{
  "source": "patent US20120128646A1",
  "about": "“METHODS AND COMPOSITIONS FOR THE TREATMENT OF AUTOIMMUNE DISEASE” (priority 2009, published 2012)",
  "key": {"T cell clone BDC-10.1": {"system": "T cell clone BDC-10.1", "test": "IFNγ production by T cell clone in antigen assay (ELISA)", "type": "cell-based, NOD mouse", "details": "for Stimulation of T cell clone BDC-10.1 (IFNγ response), result in words: peptide or preparation as antigen", "description": "(§1) The T cell clones are maintained in culture by periodic re-stimulation with irradiated NOD splenocytes and islet cells or β-membrane. To assay for antigen, resting responder T cells (i.e., for example, the cells at the end of the two-week restimulation period) are co-cultured for 24 hr with elicited peritoneal macrophages (PEC) as APC and either a test sample or control antigen. Control antigen will be in the form of islet cells or the whole-cell membrane fraction (i.e., for example, a β-membrane fraction). As described above, unlysed β-membrane is stored in aliquots at −80° C. for this purpose. Negative controls include responder cells alone and responders plus APC.\n(§2) At the end of the culture period, supernatants are collected from the cultures and IFNγ production is measured by ELISA. Wells positive for IFNγ are indicative of T cells responding to antigen; the amount of cytokine produced is calculated from a standard curve and is directly proportional to the amount of antigen present.\n(§3) Antigenicity of islet cells, cellular and biochemical fractions, peptides, or insect cells expressing IA^g7-peptide constructs, was assessed through responses of T cell clones or hybridomas made by fusing T cell clones to the TCR^− version of T cell lymphoma, BW5147. White et al., “Two better cell lines for making hybridomas expressing specific T cell receptors” J Immunol 143:1822-1825 (1989). T cell clone cultures typically contained 2×10^4 responder T cells, 2.5×10^4 NOD peritoneal exudate cells (PEC) as APC, and antigen (SEC/IEX fractions, peptides, islet cells); all assays were performed with β-Mem as a positive control. IFNγ was measured by ELISA of culture supernatants. For cultures with T cell hybridomas, antigen/MHC activation was assessed by IL-2 production measured by a bioassay using the HT-2 T cell line. Walker et al., “Antigenspecific. I region-restricted interactions in vitro between tumor cell lines and T cell hybridomas” J Immunol 128:2164-2169 (1982). Synthetic peptides were either produced in the Molecular Resource Center at National Jewish Health or obtained from CHI Scientific, Maynard, Mass."}, "T cell clone BDC-2.5": {"system": "T cell clone BDC-2.5", "test": "IFNγ production by T cell clone in antigen assay (ELISA)", "type": "cell-based, NOD mouse", "details": "for Stimulation of T cell clone BDC-2.5 (IFNγ response), result in words: peptide or preparation as antigen", "description": "as §1, §2, §3"}, "T cell clone BDC-5.10.3": {"system": "T cell clone BDC-5.10.3", "test": "IFNγ production by T cell clone in antigen assay (ELISA)", "type": "cell-based, NOD mouse", "details": "for Stimulation of T cell clone BDC-5.10.3 (IFNγ response), result in words: peptide or preparation as antigen", "description": "as §1, §2, §3"}, "soluble IA^g7": {"system": "soluble IA^g7", "test": "Peptide binding to IA^g7: competition with biotinylated HEL peptide", "design": "species or system NOD mouse", "details": "competition with biotinylated pHEL 11 μM, pH 5.6, overnight", "description": "FIG. 15B: A series of ChgA peptides tested for their ability to compete with a biotinylated HEL peptide for binding to soluble IA^g7. pS3-positive control peptide. IE^k moth cytochrome c-negative control peptide. N=2. Y axis: Percent of IA^g7-bound biotinylated HEL peptide as compared to IE^k. X axis: Log concentration of inhibitor peptide.\nIn order to confirm the unique binding register of the WE14 peptide, a series of peptides comprising N-terminal extensions and/or C-terminal deletions of WE14 were evaluated for their ability to stimulate the BDC-2.5 T cell clone (FIG. 6a) or to bind to IA^g7. See, FIG. 15A. […] See, FIG. 15B. Further, a pS3 mimotope was used as the positive control peptide and an irrelevant peptide from moth cytochrome c, pMCC, was the negative control peptide. The data were analyzed to determine the stimulatory or binding capacity of the peptides relative to WE14. See, FIG. 15C.\nSoluble IA^g7 with covalently attached pHEL was treated with thrombin to cleave the linker attaching the peptide to the IA^g7 β chain. Kozono et al., “Production of soluble MHC class II proteins with covalently bound single peptides” Nature 369:151-154 (1994). Samples (0.5 μg) were incubated with a soluble biotinylated version of pHEL, Biotin-GGGMKRHGLDNYRGYSL (SEQ ID NO: 56) (11 μM), either alone or in the presence of various concentrations of potential competitors peptides, in 15 μL of pH 5.6 buffer overnight at room temperature. The sample was diluted to 100 μL of PBS in a well of a 96-well ELISA plate coated with an anti-IA^g7 monoclonal antibody, OX-6 (BD Pharmaceuticals). The captured IA^g7 was washed several times with PBS and the bound bio-pHEL detected with alkaline phosphatase coupled Extravadin (Sigma) and […]."}, "diabetogenic T cells": {"system": "diabetogenic T cells", "test": "Immunization of BDC-2.5 TCR-Tg NOD mice with WE14; spleen cell IFNγ ELISA", "type": "in vivo", "details": "WE14 50 mg in CFA day 0, boost in IFA day 7; spleen cells day 14, WE14 100 mg or 200 mg as antigen", "protocol": "In one experiment, BDC-2.5 TCR-Tg NOD mice were immunized with WE14 ([…]) in complete Freund's adjuvant (CFA) at day 0 and boosted with WE14 in incomplete Freund's adjuvant (IFA) at day 7. Spleen cells were harvested 14 days after the initial immunization and assayed by ELISA with WE14 (100 mg or 200 mg) as antigen. […] See, FIG. 16."}, "CD4+ and CD8+ T cells": {"system": "CD4+ and CD8+ T cells", "test": "Immunization of NOD mice with WE14; intracellular IFNγ of pLN and spleen T cells by flow cytometry", "type": "in vivo", "details": "WE14 100 mg + IFA i.p. day 0, boost day 30; pLN and spleen at seven weeks", "protocol": "In another experiment, NOD mice (3-4 wks old) were immunized intraperitoneally (i.p.) with WE14 (100 mg+IFA) at day 0 and boosted with the same dose of peptide 30 days later. Seven weeks after the initial immunization, pancreatic lymph nodes (pLN) and spleen were harvested and single cell suspensions of these organs were made. The cells were stimulated with anti-CD3 ([…]) and anti-CD28 (2 mg/ml) for 48 hr. PMA/ionomycin and Golgiplug were added for an additional 4 hr. Cells were harvested and analyzed for intracellular IFNγ production by flow cytometry. […] See, FIG. 17."}, "NOD.scid recipients": {"system": "NOD.scid recipients", "test": "Adoptive co-transfer of diabetes to NOD.scid recipients with spleen cells from WE14-immunized NOD mice", "type": "in vivo", "details": "1×10^7 WE14 SC co-transferred i.v. with 1×10^7 diabetic NOD spleen cells", "protocol": "In another experiment, NOD mice (3-4 wks old) were immunized with WE14+IFA and 13 days later, single cell suspensions of the spleens (WE14 SC) were prepared. WE14 SC (1×10^7) were co-transferred with spleen cells obtained from a diabetic NOD mouse (1×10^7) into adult NOD.scid recipients by Intravenous (i.v.) injection. Urine glucose was monitored daily following cell transfer and hyperglycemia was confirmed by blood glucose readings."}},
  "note": "“Also recorded” adds a separate entry of the source.",
  "data": [
    {"sequence": "WSRMDQLAKELTAE (listed as Mus musculus) [WE14, natural cleavage product of ChgA, aa 359-372]", "values": [
      {"measurement": "Potency in activating the BDC clones, fold less potent than the pS3 mimotope", "setting": "T cell clone BDC-10.1; BDC-10.1, synthetic peptide", "result": "at least 1000 fold"},
      {"measurement": "Stimulation of T cell clone BDC-10.1 (IFNγ response), result in words", "setting": "T cell clone BDC-10.1", "result": "stimulated; also recorded: considerably less potent"},
      {"measurement": "Stimulation of T cell clone BDC-10.1 (IFNγ response), result in words", "setting": "T cell clone BDC-10.1; listed as WE-14", "result": "stimulated"},
      {"measurement": "Antigen response as percentage of maximal IFN-γ response [% Max]", "setting": "T cell clone BDC-2.5; 100 mg/ml peptide, 100 mg/ml β-membrane = 100%", "result": "~15", "unit": "%"},
      {"measurement": "Potency in activating the BDC clones, fold less potent than the pS3 mimotope", "setting": "T cell clone BDC-2.5; BDC-2.5, synthetic peptide", "result": "at least 1000 fold"},
      {"measurement": "Stimulation of T cell clone BDC-2.5 (IFNγ response), result in words", "setting": "T cell clone BDC-2.5", "result": "weak stimulator; also recorded: weakly stimulated; also recorded: considerably less potent; also recorded: only very weakly"},
      {"measurement": "Stimulation of T cell clone BDC-2.5 (IFNγ response), result in words", "setting": "T cell clone BDC-2.5; listed as WE-14", "result": "stimulated"},
      {"measurement": "Potency in activating the BDC clones, fold less potent than the pS3 mimotope", "setting": "T cell clone BDC-5.10.3; BDC-5.10.3, synthetic peptide", "result": "at least 1000 fold"},
      {"measurement": "Stimulation of T cell clone BDC-5.10.3 (IFNγ response), result in words", "setting": "T cell clone BDC-5.10.3", "result": "stimulated; also recorded: considerably less potent"},
      {"measurement": "Stimulation of T cell clone BDC-5.10.3 (IFNγ response), result in words", "setting": "T cell clone BDC-5.10.3; listed as WE-14", "result": "stimulated"},
      {"measurement": "IA^g7 binding, result in words", "setting": "soluble IA^g7", "result": "can bind"},
      {"measurement": "IFNγ response of the diabetogenic T cells after immunization", "setting": "diabetogenic T cells", "result": "considerably reduced"},
      {"measurement": "Inflammatory response (intracellular IFNγ) of CD4+ and CD8+ T cells in lymphoid organs", "setting": "CD4+ and CD8+ T cells", "result": "suppress"},
      {"measurement": "Onset of disease induced by diabetic NOD spleen cells", "setting": "NOD.scid recipients", "result": "considerably delayed"}
    ]}
  ]
}
